Patent US12428406B2 (PMV Pharmaceuticals, Inc., priority 2019, dated 2025)

Biological target: T1, p53 Y220C (Homo sapiens, UniProt P04637, Y220C)
T1 construct: The recombinant protein was a truncation mutant containing only amino acids 94-312 of p53; made in house; host or cells: E. coli
Assay: In vitro DNA binding activity assay (HTRF / TR-FRET): stabilization of p53 Y220C and increase of its DNA binding activity
Format: biochemical
Conditions: recombinant His-tagged p53 Y220C DNA binding domain (aa 94-312), biotin-labeled consensus DNA, incubated at 27° C. or 29° C. for 60 min
Method in brief: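 Test compounds, diluted 3-fold in DMSO from 4.5 mM stocks, were incubated with bacterially expressed His-tagged p53 Y220C at room temperature for 15 min, and after a further step for 20 min. DNA binding was detected by time-resolved FRET between APC and europium labels. SC150 marks the concentration increasing binding by 50%.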

T1 sequence (P04637 94-312, change not shown): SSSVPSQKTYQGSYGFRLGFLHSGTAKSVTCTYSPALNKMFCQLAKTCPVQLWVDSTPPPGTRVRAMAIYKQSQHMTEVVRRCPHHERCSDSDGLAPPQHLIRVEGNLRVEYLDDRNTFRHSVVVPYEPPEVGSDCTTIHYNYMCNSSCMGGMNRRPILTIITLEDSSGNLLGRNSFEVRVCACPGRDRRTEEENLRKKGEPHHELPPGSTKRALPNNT

SC150 (concentration of the compound required to increase the DNA binding activity by 50%)	SMILES
+ (+ = 0 μM ≤ SC150 < 0.05 μM)	COc1cc(S(N)(=O)=O)ccc1NCC#Cc1cc2c(NC3CCN(CC(C)OC(=O)C(C)C)CC3)cccc2n1CC(F)(F)F (stereo not drawn) [Compound 598A, 1-{4-[(2-{3-[(2-methoxy-4-sulfamoylphenyl)amino]prop-1-yn-1-yl}-1-(2,2,2-trifluoroethyl)-1H-indol-4-yl)amino]piperidin-1-yl}propan-2-yl 2-methylpropanoate]
+ (+ = 0 μM ≤ SC150 < 0.05 μM)	COc1cc(S(=O)(=O)N(C)C)ccc1NCC#Cc1cc2c(NC3CCNCC3)cccc2n1CC(F)(F)F [Compound 460A]
+ (+ = 0 μM ≤ SC150 < 0.05 μM)	CCN(CC)[C@H]1CC[C@H](Nc2cccc3c2cc(C#CCNc2ccc(S(C)(=O)=O)cc2OC)n3CC(F)(F)F)CC1 [Compound 162A, (1R,4R)-N^1,N^1-diethyl-N4-(2-{3-[(4-methanesulfonyl-2-methoxyphenyl)amino]prop-1-yn-1-yl}-1-(2,2,2-trifluoroethyl)-1H-indol-4-yl)cyclohexane-1,4-diamine]
+ (+ = 0 μM ≤ SC150 < 0.05 μM)	CCN1CCC(Nc2cccc3c2cc(C#CCNc2ccc(S(C)(=O)=O)cc2OC)n3CC(F)(F)F)CC1 [Compound 537A]
+ (+ = 0 μM ≤ SC150 < 0.05 μM)	CCOC(=O)c1ccc(NCC#Cc2cc3c(N[C@H]4CCN(C)C[C@H]4F)cccc3n2CC(F)(F)F)c(OC)c1 (racemic) [Compound 798A, rac-ethyl 4-{[3-(4-{[(3R,4S)-3-fluoro-1-methylpiperidin-4-yl]amino}-1-(2,2,2-trifluoroethyl)-1H-indol-2-yl)prop-2-yn-1-yl]amino}-3-methoxybenzoate]
+ (+ = 0 μM ≤ SC150 < 0.05 μM)	CC(C)N1CCC(Nc2cccc3c2cc(C#CCNc2ccc(S(C)(=O)=O)cc2OCC#N)n3CC(F)(F)F)CC1 [Compound 540A]
+ (+ = 0 μM ≤ SC150 < 0.05 μM)	CN[C@H]1CC[C@@H](Nc2cccc3c2cc(C#CCNc2ccc(S(C)(=O)=O)cc2OC)n3CC(F)(F)F)[C@H](F)C1 [Compound 937A]
+ (+ = 0 μM ≤ SC150 < 0.05 μM)	COc1cc(C(=O)OCC(C)O)ccc1NCC#Cc1cc2c(N[C@H]3CCN(C)C[C@H]3F)cccc2n1CC(F)(F)F (mixture of isomers) [Compound 806A, rac-2-hydroxypropyl 4-{[3-(4-{[(3R,4S)-3-fluoro-1-methylpiperidin-4-yl]amino}-1-(2,2,2-trifluoroethyl)-1H-indol-2-yl)prop-2-yn-1-yl]amino}-3-methoxybenzoate]
+ (+ = 0 μM ≤ SC150 < 0.05 μM)	COc1cc(S(N)(=O)=O)ccc1NCC#Cc1cc2c(N[C@@H]3CCN(C[C@@H](O)CO)C[C@@H]3F)cccc2n1CC(F)(F)F [Compound 882A]
+ (+ = 0 μM ≤ SC150 < 0.05 μM)	COc1cc(S(N)(=O)=O)ccc1NCC#Cc1cc2c(N[C@H]3CCN(C[C@H](COC(C)=O)OC(C)=O)C[C@H]3F)cccc2n1CC(F)(F)F [Compound 888A, (2R)-1-(acetyloxy)-3-[(3R,4S)-3-fluoro-4-[(2-{3-[(2-methoxy-4-sulfamoylphenyl)amino]prop-1-yn-1-yl}-1-(2,2,2-trifluoroethyl)-1H-indol-4-yl)amino]piperidin-1-yl]propan-2-yl acetate]
+ (+ = 0 μM ≤ SC150 < 0.05 μM)	COc1cc(S(C)(=O)=O)ccc1NCC#Cc1cc2c(N[C@H]3CCN(C[C@@H](C)O)C[C@H]3F)cccc2n1CC(F)(F)F [Compound 894A, 1-[(3R,4S)-3-fluoro-4-[(2-{3-[(4-methanesulfonyl-2-methoxyphenyl)amino]prop-1-yn-1-yl}-1-(2,2,2-trifluoroethyl)-1H-indol-4-yl)amino]piperidin-1-yl]propan-2-ol]
++ (++ = 0.05 μM ≤ SC150 < 0.1 μM)	COc1cc(C(=O)O)ccc1NCC#Cc1cc2c(N[C@H]3CCN(C)C[C@@H]3F)cccc2n1CC(F)(F)F (racemic) [Compound 833A, rac-4-{[3-(4-{[(3R,4R)-3-fluoro-1-methylpiperidin-4-yl]amino}-1-(2,2,2-trifluoroethyl)-1H-indol-2-yl)prop-2-yn-1-yl]amino}-3-methoxybenzoic acid]
+ (+ = 0 μM ≤ SC150 < 0.05 μM)	COc1cc(S(C)(=O)=O)ccc1NCC#Cc1cc2c(NC3CCN(C4CC4)CC3)cccc2n1CC(F)(F)F [Compound 720A, N-(1-cyclopropylpiperidin-4-yl)-2-{3-[(4-methanesulfonyl-2-methoxyphenyl)amino]prop-1-yn-1-yl}-1-(2,2,2-trifluoroethyl)-1H-indol-4-amine]

The next lines start with the molecule.

SMILES	SC150 (concentration of the compound required to increase the DNA binding activity by 50%)
CNC(=O)c1ccc(NCC#Cc2cc3c(N[C@H]4CC[C@@H](N(C)C)CC4)cccc3n2CC(F)(F)F)c(OC)c1 [Compound 75A, 3-methoxy-N-methyl-4-{[3-(4-{[(1S,4S)-4-(dimethylamino)cyclohexyl]amino}-1-(2,2,2-trifluoroethyl)-1H-indol-2-yl)prop-2-yn-1-yl]amino}benzamide]	++ (++ = 0.05 μM ≤ SC150 < 0.1 μM)
CN(C)[C@H]1CC[C@@H](Nc2cccc3c2cc(C#CCNc2ccc(S(C)(=O)=O)cc2O)n3CC(F)(F)F)CC1 [Compound 79A, 5-methanesulfonyl-2-{[3-(4-{[(1R,4R)-4-(dimethylamino)cyclohexyl]amino}-1-(2,2,2-trifluoroethyl)-1H-indol-2-yl)prop-2-yn-1-yl]amino}phenol]	+ (+ = 0 μM ≤ SC150 < 0.05 μM)
COc1cc(S(C)(=O)=O)ccc1NCC#Cc1cc2c(N[C@H]3CC[C@H](N4CCOCC4)CC3)cccc2n1CC#N [Compound 174A, 2-(2-{3-[(4-methane-sulfonyl-2-methoxy-phenyl)amino]prop-1-yn-1-yl}-4-{[(1R,4R)-4-(morpholin-4-yl)cyclo-hexyl]amino}-1H-indol-1-yl)acetonitrile]	+ (+ = 0 μM ≤ SC150 < 0.05 μM)
COc1cc(C(N)=O)c(F)cc1NCC#Cc1cc2c(N[C@H]3CC[C@H](N(C)C)CC3)cccc2n1CC(F)(F)F [Compound 132A, 4-((3-(4-(((1R,4R)-4-(dimethylamino)cyclohexyl)amino)-1-(2,2,2-trifluoroethyl)-1H-indol-2-yl)prop-2-yn-1-yl)amino)-2-fluoro-5-methoxybenzamide]	+ (+ = 0 μM ≤ SC150 < 0.05 μM)
NS(=O)(=O)c1ccc(NCC#Cc2cc3c(N[C@H]4CC[C@H](N5CCOCC5)CC4)cccc3n2CC(F)(F)F)c(OCF)c1 [Compound 344A, 3-(fluoromethoxy)-4-{[3-(4-{[(1R,4R)-4-(morpholin-4-yl)cyclohexyl]amino}-1-(2,2,2-trifluoroethyl)-1H-indol-2-yl)prop-2-yn-1-yl]amino}benzene-1-sulfonamide]	+ (+ = 0 μM ≤ SC150 < 0.05 μM)
COc1cc(C(=O)NCC(COC(C)=O)OC(C)=O)ccc1NCC#Cc1cc2c(N[C@@H]3CCN(C)C[C@@H]3F)cccc2n1CC(F)(F)F (stereo partly drawn) [Compound 970A, 1-(acetyloxy)-3-[(4-{[3-(4-{[(3S,4R)-3-fluoro-1-methylpiperidin-4-yl]amino}-1-(2,2,2-trifluoroethyl)-1H-indol-2-yl)prop-2-yn-1-yl]amino}-3-methoxyphenyl)formamido]propan-2-yl acetate]	+ (+ = 0 μM ≤ SC150 < 0.05 μM)
COc1cc(C(=O)N2CC3(CCOCC3)C2)ccc1NCC#Cc1cc2c(NC3CCN(C)CC3)cccc2n1CC(F)(F)F [Compound 511A, 2-{3-[(2-methoxy-4-{7-oxa-2-azaspiro[3.5]nonane-2-carbonyl}phenyl)amino]prop-1-yn-1-yl}-N-(1-methylpiperidin-4-yl)-1-(2,2,2-trifluoroethyl)-1H-indol-4-amine]	+ (+ = 0 μM ≤ SC150 < 0.05 μM)
CCC(=O)NS(=O)(=O)c1ccc(NCC#Cc2cc3c(NC4CCN(CC(COC)OC(=O)CC)CC4)cccc3n2CC(F)(F)F)c(OC)c1 (stereo not drawn) [Compound 627A, 1-methoxy-3-(4-{[2-(3-{[2-methoxy-4-(propanamidosulfonyl)phenyl]amino}prop-1-yn-1-yl)-1-(2,2,2-trifluoroethyl)-1H-indol-4-yl]amino}piperidin-1-yl)propan-2-yl propanoate]	+ (+ = 0 μM ≤ SC150 < 0.05 μM)
CC(C)C(=O)Oc1cc(S(C)(=O)=O)ccc1NCC#Cc1cc2c(N[C@H]3CC[C@@H](N4CC5(COC5)C4)CC3)cccc2n1CC(F)(F)F [Compound 224A, 5-methanesulfonyl-2-{[3-(4-{[(1S,4S)-4-{2-oxa-6-azaspiro[3.3]heptan-6-yl}cyclohexyl]amino}-1-(2,2,2-trifluoroethyl)-1H-indol-2-yl)prop-2-yn-1-yl]amino}phenyl 2-methylpropanoate]	+ (+ = 0 μM ≤ SC150 < 0.05 μM)
CS(=O)(=O)c1ccc(NCC#Cc2cc3c(N[C@H]4CC[C@@H](N5CCC6(CC5)COC6)CC4)cccc3n2CC(F)(F)F)c(OCC#N)c1 [Compound 390A, 2-(5-methanesulfonyl-2-{[3-(4-{[(1S,4S)-4-{2-oxa-7-azaspiro[3.5]nonan-7-yl}cyclohexyl]amino}-1-(2,2,2-trifluoroethyl)-1H-indol-2-yl)prop-2-yn-1-yl]amino}phenoxy)acetonitrile]	+ (+ = 0 μM ≤ SC150 < 0.05 μM)
CN(C)[C@H]1CC[C@@H](Nc2cccc3c2cc(C#CCOc2ccc(S(C)(=O)=O)cc2N)n3CC(F)(F)F)CC1 [Compound 94A, (1S,4S)-N4-{2-[3-(2-amino-4-methane-sulfonylphenoxy)prop-1-yn-1-yl]-1-(2,2,2-trifluoroethyl)-1H-indol-4-yl}-N^1,N^1-dimethylcyclohexane-1,4-diamine]	+++ (+++ = 0.1 μM ≤ SC150 < 0.2 μM)
